We go through 22 molecules from US11596611B2, “Hepatitis B antiviral agents” (ENANTA PHARMACEUTICALS, INC., priority 2017, dated 2023).

Where only a bound is given, the exact number is not on record here.

In the experiment the test system is HBV. Kind of experiment: HepAD38 antiviral assay: reduction of viral product accumulation (virion DNA by qPCR, HBsAg or HBeAg by ELISA). The note with it: Hepatitis B virus, 120 h; HepAD38 cells, five days after compound addition; 50% reduction of viral product vs no drug controls; read-out: HepAD38 EC50. It is filed as cell-based, hepatitis B virus. Summed up: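 Readouts were qPCR of lysed virion DNA plus ELISA for HBsAg or HBeAg, samples diluted into linear range. HepAD38 cells, washed free of tetracycline, received compound diluted 1:200 from DMSO for 5 days; 8-day variant refreshed media and compound on days 2 and 5.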
As a reminder, the EC50 is the concentration at which the effect is half-maximal. In the case of `Cc1cccnc1C(O)[C@@]1(O)C2CC[C@H]1C[C@H](S(=O)(=O)c1cc(C(=O)Nc3ccc(F)c(F)c3)ccc1Cl)C2` (stereo partly shown) [Example 295], the EC50 is below 104 nM.
The figure for `O=C(Nc1ccc(F)c(F)c1)c1ccc(Cl)c(S(=O)(=O)[C@H]2CC3CCC(C2)[C@]3(O)C(O)C(O)CN2CCCS2(=O)=O)c1` (stereo partly shown) [Example 320] is below 104 nM.
In the case of `O=C(Nc1cc(F)c(F)c(F)c1)c1ccc(Cl)c(S(=O)(=O)[C@H]2C3CC[C@H]2C[C@](O)(C(O)C(O)CO)C3)c1` (mixture of isomers) [Example 64], the EC50 is 100 to 200 nM.
The figure for `O=C1CC[C@@H](C(=O)NC[C@]2(O)C3CCC2C[C@@H](S(=O)(=O)c2cc(C(=O)Nc4cc(F)c(F)c(F)c4)ccc2Cl)C3)N1` [Example 127] is above 200 nM.
With `O=C(Nc1ccc(F)c(F)c1)c1ccc(Cl)c(S(=O)(=O)[C@H]2C[C@H](CO)C2)c1` [Example 252a], the concentration for a half-maximal effect (EC50) is above 200 nM.
In the case of `COC(=O)N1CC[C@H](O)[C@H]1C(=O)NC[C@@]1(O)C2CC[C@H]1C[C@H](S(=O)(=O)c1cc(C(=O)Nc3cc(F)c(F)c(F)c3)ccc1Cl)C2` [Example 79], the EC50 is above 200 nM.
As to `O=C(Nc1cc(F)c(F)c(F)c1)c1ccc(Cl)c(S(=O)(=O)[C@H]2CC3CCC(C2)[C@]3(O)CO[C@@H]2C[C@@H](O)[C@@H](O)C2)c1` [Example 35], the EC50 is below 104 nM.
For the molecule `O=C(C[C@]1(O)C2CCC1C[C@@H](S(=O)(=O)c1cc(C(=O)Nc3cc(F)c(F)c(F)c3)ccc1Cl)C2)NCC(O)CO` (stereo partly shown) [Example 65], the EC50 was below 104 nM.
With `O=C(Nc1cc(F)c(F)c(F)c1)c1ccc(Cl)c(S(=O)(=O)C2CC3CCC(C2)C3C(O)C(O)CO)c1` (stereo not shown) [Example 20], the EC50 was below 104 nM.
On to `NS(=O)(=O)OC[C@]1(O)CC2CC[C@@H](C1)[C@H]2S(=O)(=O)c1cc(C(=O)Nc2cc(F)c(F)c(F)c2)ccc1Cl` [Example 3], for which the EC50 was below 104 nM.
With `O=C1NC(C(=O)NC[C@]2(O)C3CCC2C[C@@H](S(=O)(=O)c2cc(C(=O)Nc4cc(F)c(F)c(F)c4)ccc2Cl)C3)CO1` (stereo partly shown) [Example 97], the EC50 fell in the range of 100 to 200 nM.
`C[C@H](O)COCC1(O)CCC(CS(=O)(=O)c2cc(C(=O)Nc3ccc(F)c(F)c3)ccc2Cl)CC1` (stereo partly shown) [Example 198]: the EC50 fell in the range of 100 to 200 nM.
Consider `O=C(Nc1ccc(F)c(F)c1)c1ccc(Cl)c(S(=O)(=O)CC2CC(O)(C(O)CO)C2)c1` (stereo not shown) [Example 207], for which the EC50 was above 200 nM.
On to `C[C@H](O)[C@H](O)[C@]1(O)C2CCC1C[C@@H](S(=O)(=O)c1cc(C(=O)Nc3ccc(F)c(F)c3)ccc1Cl)C2` (single isomer, unassigned) [Example 181], for which the EC50 was below 104 nM.
Next, `COCC(COC)OC[C@]1(O)C2CCC1C[C@@H](S(=O)(=O)c1cc(C(=O)Nc3cc(F)c(F)c(F)c3)ccc1Cl)C2` [Example 121]: below 104 nM; `C[C@]1(O)C2CCC1C[C@@H](S(=O)(=O)c1cc(C(=O)Nc3ccc(F)c(F)c3)c(-c3cccnc3)cc1Cl)C2` [Example 102]: above 200 nM; `C[C@]1(O)C2CCC1C[C@@H](S(=O)(=O)c1cc(C(=O)Nc3ncccn3)ccc1Cl)C2` [Example 217]: above 200 nM.
The figure for `Cc1cccc([C@@H](O)[C@@]2(O)C3CC[C@H]2C[C@H](S(=O)(=O)c2cc(C(=O)Nc4ccc(F)c(F)c4)ccc2Cl)C3)n1` [Example 294b] is below 104 nM.
With `CC(O)C[C@]1(O)CC[C@H](CS(=O)(=O)c2cc(C(=O)Nc3ccc(F)c(F)c3)ccc2Cl)CC1` (stereo partly shown) [Example 225], the EC50 lay within 100 to 200 nM.
`NC(=O)C[C@H](N)C(=O)NC[C@]1(O)C2CCC1C[C@@H](S(=O)(=O)c1cc(C(=O)Nc3cc(F)c(F)c(F)c3)ccc1Cl)C2` [Example 27]: the EC50 is above 200 nM.
As to `O=C(Nc1ccc(F)c(F)c1)c1ccc(Cl)c(S(=O)(=O)C2CC(O)(CCCO)C2)c1` (stereo not shown) [Example 241], the EC50 is above 200 nM.
For `Cc1cc(Cl)c(S(=O)(=O)[C@H]2CC3CCC(C2)[C@@]3(C)O)cc1C(=O)Nc1ccc(F)c(F)c1` [Example 69], the EC50 was below 104 nM.
